Measured values reported in patent US4018895A, “Aryloxyphenylpropylamines in treating depression” (Eli Lilly and Company, priority 1975, dated 1977).
Read-outs that look alike come from different tables or passages of the source.

Tests used:
[1] = system: hypothermia induced by the injection of reserpine; assay: Reserpine hypothermia reversal test; format: in vivo, mice; settings: for inhibition in vivo at 1 mg/kg / inhibition in vivo at 3 mg/kg / inhibition in vivo at 0.3 mg/kg / inhibition in vivo at 10 mg/kg: Mus musculus, ip, 1 h, Post-60 min., mice, read-out: Percent Antagonism Reserpine; for inhibition in vivo at 1 mg/kg: 1 mg./kg. intraperitoneally; for inhibition in vivo at 3 mg/kg: 3 mg./kg. intraperitoneally; for inhibition in vivo at 0.3 mg/kg: .3 mg./kg. intraperitoneally; for inhibition in vivo at 10 mg/kg: 10 mg./kg. intraperitoneally; for Activity in reversal of reserpine hypothermia: in words
Experimental: (§1) The apomorphine hypothermia antagonism test is carried out as follows: mice are injected with a dose of apomorphine known to reduce body temperature approximately 4° C. The compound under test is injected 1/2 hour before the injection of the apomorphine and the temperatures measured 1/2 hour after injection. The degree of antagonism is expressed as a percent reduction (as compared with controls) of the temperature decrease produced by the injection of the apomorphine. The reserpine hypothermia reversal test is carried out as follows: groups of mice are injected with reserpine and 16.5 hours later are injected intraperitoneally with graded doses of the drug, a different dose level being given to each group of mice. Temperatures are measured at 1 hour after injection of the drug under test and again the effectiveness of the drug is expressed as a percentage decrease in the hypothermia induced by the injection of reserpine as compared with the control group. In the tablets which follow, Table 4 gives the results in the apomorphine antagonism and reserpine reversal hypothermia tests for the secondary amines of this invention. In the table, the first column gives the substituent attached to the oxygen atom at the 3 position of the propylamine chain; columns 2 to 4 the percent antagonism against apomorphine hypothermia at dose levels of 0.3, 1 and 3 mg./kg. and columns 5-7 the percent reversal of reserpine hypothermia at the same dose levels.

[2] = system: hypothermia induced by the injection of apomorphine; assay: Apomorphine hypothermia antagonism test; format: in vivo, mice; settings: for Activity in antagonism of apomorphine hypothermia: in words
Experimental: as §1, with “The compound under test is injected 1/2 hour before the injection of the apomorphine and the temperatures measured 1/2 hour after injection.” left out

[3] = system: norepinephrine uptake by synaptosomes from rat brain; assay: In vitro blockade of norepinephrine uptake by synaptosomes from rat brain; format: biochemical; settings: Table 1, scaffold drawing 3; norepinephrine 0.48 μM
Description: (§2) This blockade is shown both in vitro with radioactive labelled compounds to determine the amount of monoamine uptake by synaptosomes from rat brain, and in vivo by a variety of methods. Among the physiologically active monoamines whose uptake is blocked by the compounds of this invention are included serotonin, norepinephrine and dopamine (3,4-dihydroxyphenylethylamine). […] Tables 1 and 2 which follow set forth the results of some of the in vitro determinations of the blockage of monoamine uptake by the compounds of this invention. In the tables, column 1 gives the R substituent on the 3-phenylpropylamine and columns 2-4, the concentration in micrograms per ml. that blocks the uptake of a particular amine by 50 percent for the amines--norephinephrine, serotonin, and dopamine. At the head of each column is given the concentration of the particular monoamine used in the experiment.

[4] = system: dopamine uptake by synaptosomes from rat brain; assay: In vitro blockade of dopamine uptake by synaptosomes from rat brain; format: biochemical; settings: Table 1, scaffold drawing 3; dopamine 0.2 μM
Description: as §2

[5] = system: serotonin uptake by synaptosomes from rat brain; assay: In vitro blockade of serotonin uptake by synaptosomes from rat brain; format: biochemical; settings: Table 1, scaffold drawing 3; serotonin 0.1 μM
Description: as §2

[6] = Table 5, dimethylamino compounds
[7] = Mus musculus, Table 5, dimethylamino compounds, Pre-30 min., mice, read-out: Percent Antagonism Apomorphine
[8] = Mus musculus, Table 4, secondary amines, Pre-30 min., mice, read-out: Percent Antagonism Apomorphine

SMILES: CN(C)CCC(Oc1ccc(F)cc1)c1ccccc1 (stereo not drawn) [p-fluorophenyl]
- inhibition in vivo at 1 mg/kg ([1]; Table 4, secondary amines): 39%
- inhibition in vivo at 3 mg/kg ([1]; Table 4, secondary amines): 32%
- inhibition in vivo at 0.3 mg/kg ([1]; Table 4, secondary amines): 7%
- inhibition in vivo at 1 mg/kg [1, 6]: 10%
- inhibition in vivo at 3 mg/kg [1, 6]: 24%
- inhibition in vivo at 10 mg/kg [1, 6]: 49%
- inhibition in vivo at 0.3 mg/kg [1, 6]: 14%
- inhibition in vivo at 1 mg/kg [2, 7]: 26%
- inhibition in vivo at 3 mg/kg [2, 7]: 63%
- inhibition in vivo at 10 mg/kg [2, 7]: 116%

SMILES: CN(C)CCC(Oc1ccc(C(F)(F)F)cc1)c1ccccc1 (stereo not drawn) [p-trifluoromethylphenyl]
- inhibition in vivo at 10 mg/kg [2, 7]: 24%

SMILES: Cc1cc(F)ccc1OC(CCN(C)C)c1ccccc1.O=C(O)C(=O)O (stereo not drawn) [4-fluoro-o-tolyl, N,N-dimethyl 3-(p-fluoro-o-tolyloxy)-3-phenylpropylamine oxalate]
- Concentration that blocks 50% of amine uptake, Norepinephrine [3]: 2.5 mcq./ml.
- Concentration that blocks 50% of amine uptake, Dopamine [4]: 40 mcq./ml.
- Concentration that blocks 50% of amine uptake, Serotonin [5]: .6 mcq./ml.

SMILES: CN(C)CCC(Oc1ccccc1Br)c1ccccc1.O=C(O)C(=O)O (stereo not drawn) [o-bromophenyl, N,N-dimethyl 3-(o-bromophenoxy)-3-phenylpropylamine oxalate]
- inhibition in vivo at 3 mg/kg [1, 6]: 18%
- inhibition in vivo at 10 mg/kg [1, 6]: 30%
- Concentration that blocks 50% of amine uptake, Dopamine [4]: 5 mcq./ml.
- inhibition in vivo at 1 mg/kg [2, 7]: 19%
- inhibition in vivo at 3 mg/kg [2, 7]: 40%
- inhibition in vivo at 10 mg/kg [2, 7]: 47%
- Concentration that blocks 50% of amine uptake, Serotonin [5]: .1 mcq./ml.

SMILES: CNCCC=C1c2ccccc2CCc2ccccc21 [nortriptyline, reference compound]
- Activity in reversal of reserpine hypothermia [1]: active
- Activity in antagonism of apomorphine hypothermia [2]: active

SMILES: COc1ccc(OC(CCN(C)C)c2ccccc2)cc1 (stereo not drawn) [p-anisyl]
- inhibition in vivo at 10 mg/kg [2, 7]: 25%

SMILES: CN(C)CCCN1c2ccccc2CCc2ccccc21 [imipramine, reference compound]
- Activity in reversal of reserpine hypothermia [1]: active
- Reduction of apomorphine hypothermia ([2]; 10 mg./kg. dose, measured 60 minutes after injection of the apomorphine): 100%
- Activity in antagonism of apomorphine hypothermia [2]: active

SMILES: CN(C)CCC(Oc1ccccc1C(C)(C)C)c1ccccc1.O=C(O)C(=O)O (stereo not drawn) [o-t-butylphenyl, N,N-dimethyl 3-phenyl-3-(o-t-butylphenoxy)propylamine oxalate]
- Concentration that blocks 50% of amine uptake, Norepinephrine [3]: 1.5 mcq./ml.
- Concentration that blocks 50% of amine uptake, Dopamine [4]: > 100 mcq./ml.
- Concentration that blocks 50% of amine uptake, Serotonin [5]: 40 mcq./ml.

SMILES: CN(C)CCC(Oc1ccc(Cl)cc1)c1ccccc1 (stereo not drawn) [p-chlorophenyl]
- inhibition in vivo at 1 mg/kg [2, 8]: 29%
- inhibition in vivo at 3 mg/kg [2, 8]: 37%
- inhibition in vivo at 0.3 mg/kg ([2]; Mus musculus, Table 4, secondary amines, .3 mg./kg., Pre-30 min., mice, read-out: Percent Antagonism Apomorphine): 32%
- inhibition in vivo at 1 mg/kg [2, 7]: 7%
- inhibition in vivo at 3 mg/kg [2, 7]: 43%
- inhibition in vivo at 10 mg/kg [2, 7]: 85%

SMILES: CN(C)CCC(Oc1ccc2ccccc2c1)c1ccccc1.O=C(O)C(=O)O (stereo not drawn) [β-naphthyl, N,N-dimethyl 3-(β-naphthyloxy)-3-phenylpropylamine oxalate]
- Concentration that blocks 50% of amine uptake, Norepinephrine [3]: > 100 mcq./ml.
- Concentration that blocks 50% of amine uptake, Dopamine [4]: 100 mcq./ml.
- Concentration that blocks 50% of amine uptake, Serotonin [5]: 1 mcq./ml.
